Assay results: patent publication US12534501B2, “Targeting deregulated Wnt signaling in cancer using stabilized alpha-helices of BCL-9” (Dana-Farber Cancer Institute, Inc., priority 2011, dated 2026)
One block for each compound: values may come before it. Numbered stars: 1 amine (or outer) side, 2 acyl side, 3 side chain; on linkers, the order of the positions; unused ones are H or OH. Bridge positions count the residues as written; N and C are the ends. Square brackets hold non-standard residues; d marks the D form. Peptide text beside a SMILES is read from it. ξ: configuration not given here. ξαMeNle(6-ylidene) = CC(CCCC=[*:3])(N[*:1])C(=O)[*:2]; Nle = CCCC[C@H](N)C(=O)O

Experiments:
Type in all cases: cell-based
Colo320 cells = test: Cellular invasion assay, Matrigel Boyden chambers; details: 5 μM
Description: Angiogenesis was evaluated as previously described (Mani, M. et al. Cancer Res 69, 7577-86 (2009)) using an in vitro angiogenesis assay kit (Millipore). For capillary tube formation analysis, HUVEC were cultured on polymerized matrix gel and exposed to supernatant media collected from Colo320 or MM1S cells treated with vehicle (0.5% DMSO), SAH-BCL9B peptides (5 μM) for 24 h. The number of capillary tubes formed after 5 h treatment at 37° C. was determined by counting 5 randomly selected fields at 40× magnification, according to manufacture's instructions. HUVEC cultured in VEGF media and VEGF-free media were used as positive and negative controls, respectively. Cellular invasion assays were performed using Matrigel Boyden chambers (BD Biosciences) as described (Mani, M. et al. Cancer Res 69, 7577-86 (2009)). The reported data represent the average of three independent experiments performed in triplicate. See results in FIG. 3H-FIG. 3I.

β-catenin = biological target: T1, β-catenin (Homo sapiens, UniProt P35222); test: Anti-FITC / anti-β-catenin co-immunoprecipitation from lysates of peptide-treated cells; details: FITC and β-catenin immunoprecipitation, in situ
T1 construct: endogenous in cells; host or cells: Colo320
T1 sequence (P35222 1-781): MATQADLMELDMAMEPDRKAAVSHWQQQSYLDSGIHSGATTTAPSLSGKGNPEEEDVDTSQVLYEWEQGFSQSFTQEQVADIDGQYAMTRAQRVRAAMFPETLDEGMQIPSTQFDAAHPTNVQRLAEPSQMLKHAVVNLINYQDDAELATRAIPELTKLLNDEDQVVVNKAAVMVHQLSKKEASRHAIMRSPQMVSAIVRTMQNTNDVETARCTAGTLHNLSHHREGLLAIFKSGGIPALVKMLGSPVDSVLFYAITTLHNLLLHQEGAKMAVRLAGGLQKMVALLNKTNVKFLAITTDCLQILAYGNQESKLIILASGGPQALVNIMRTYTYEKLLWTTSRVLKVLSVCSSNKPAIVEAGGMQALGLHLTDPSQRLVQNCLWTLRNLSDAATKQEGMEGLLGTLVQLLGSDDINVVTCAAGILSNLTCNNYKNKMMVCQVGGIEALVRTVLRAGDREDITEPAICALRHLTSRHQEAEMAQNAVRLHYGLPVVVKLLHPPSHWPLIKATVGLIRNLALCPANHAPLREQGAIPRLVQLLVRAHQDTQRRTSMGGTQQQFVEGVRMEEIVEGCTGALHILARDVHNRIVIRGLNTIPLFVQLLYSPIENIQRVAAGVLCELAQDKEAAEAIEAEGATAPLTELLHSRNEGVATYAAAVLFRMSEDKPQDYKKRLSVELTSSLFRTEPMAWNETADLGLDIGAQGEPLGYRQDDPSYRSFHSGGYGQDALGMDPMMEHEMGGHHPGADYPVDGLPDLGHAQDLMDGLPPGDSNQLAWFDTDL
Source text: Western blotting, performed as described (Sukhdeo, K. et al. Proc Natl Acad Sci USA 104, 7516-21 (2007)), employed the following primary antibodies: BCL9 (6109) (Mani, M. et al. Cancer Res 69, 7577-86 (2009)), BCL9 (ab37305, Abcam), B9L (AF4967, R&D Systems), β-catenin (CAT5-H10, Zymed), FITC (ab19224, Abcam), Actin-HRP (C-11, Santa Cruz), Caspase3 (#9662, Cell Signaling), IκBα (#9242, Cell signaling), PARP (#9542, Cell Signaling), E-cadherin (#3195, Cell Signaling), and Lamin B (sc-6217, Santa Cruz). Horseradish peroxidase conjugated secondary antibodies were purchased from Santa Cruz and SouthernBiotech. Co-immunoprecipitation was performed as described (Walensky, L. D. et al. Science 305, 1466-70 (2004)). Briefly, cells were lysed in 50 mM Tris, 150 mM NaCl, and 1% CHAPS buffer containing protease and phosphatase inhibitors. Lysates were precleared with Protein A/G PLUS-agarose beads (Santa Cruz Biotechnologies) for 3 hours followed by overnight incubation at 4° C. with the respective antibodies. Agarose A/G beads were then added for 4 h, pelleted, and washed as described (Walensky, L. D. et al. Science 305, 1466-70 (2004)). See results in FIG. 1D, FIG. 1H, FIG. 2A, FIG. 8.

[1] = tested on: Wnt-dependent reporter activity (TOP-FLASH) in Colo320 cells; test: Wnt-specific TCF reporter gene assay (TOP-FLASH dual luciferase); details: Colo320, normalized to Renilla
Description: Luciferase activity was measured using the Dual Luciferase Reporter Assay System (Promega) as previously described (Sukhdeo, K. et al. Proc Natl Acad Sci USA 104, 7516-21 (2007)). To measure Wnt or NFκB reporter activity, Colo320 cells were transfected with TOP-FLASH, FOP-FLASH plasmid (Millipore Corporation) or NFκB luciferase reporter (Stratagene), along with an internal Renilla control plasmid (hRL-null). Transfection was accomplished using FuGENE (Roche) according to the manufacturer's protocol. The results were normalized to control Renilla activity. The reported data represent the average of three independent transfection experiments performed in triplicate. See results in FIG. 9, FIG. 10.

Compound: CCCC[C@H](NC(=O)[C@H](CCCNC(=N)N)NC(=O)[C@H](CCC(N)=O)NC(=O)[C@@H](NC(=O)C1(C)CCCC=CCCCC(C)(NC(=O)[C@H](CC(C)C)NC(=O)[C@H](CO)NC(=O)[C@H](CCCNC(=N)N)NC(=O)[C@H](CCC(=O)O)NC(=O)[C@H](CCCNC(=N)N)NC(=O)[C@H](Cc2c[nH]cn2)NC(=O)[C@H](CCC(=O)O)NC(=O)[C@H](CC(C)C)NC(=O)[C@H](CCC(N)=O)NC(=O)[C@H](CCC(=O)O)NC(=O)[C@H](CCC(N)=O)NC(=O)[C@H](CO)NC(=O)[C@H](CC(C)C)NC(C)=O)C(=O)N[C@@H]([C@@H](C)O)C(=O)N[C@@H](CC(C)C)C(=O)N[C@@H](CCCNC(=N)N)C(=O)N1)[C@@H](C)CC)C(=O)N[C@@H](CC(C)C)C(=O)N[C@@H](Cc1ccccc1)C(N)=O (stereo partly drawn) [SAH-BCL9B] (Ac-LSQEQLEHRERSL[ξαMeNle(6-ylidene)]TLR[ξαMeNle(6-ylidene)]IQR[Nle]LF-NH2; staple 14-18)
migration through Matrigel Boyden chambers (Colo320 cells): blocked the migration | β-catenin interaction by co-immunoprecipitation (β-catenin): most effective β-catenin interactor in situ | reduction of Wnt-specific TCF reporter activity [1]: ~50%

β-catenin interaction by co-immunoprecipitation (β-catenin): impaired β-catenin interaction
Compound: SAH-BCL9B(R359E): SEQ ID NO: 7: LSQEQLEHEERSLXTLRXIQRBLF; reverse polarity point mutant, negative control of SAH-BCL9B
migration through Matrigel Boyden chambers (Colo320 cells): no effect | reduction of Wnt-specific TCF reporter activity [1]: no effect
